Marks after values point to notes of the source that are not given here.
Test system: brain of rats subjected to severe traumatic brain injury (sTBI)
Experiment: HPLC of free amino acids and amino group containing compounds in brain after sTBI (Example 1)
Assay type: in vivo, rat
Procedure: They were divided into three groups:
1) n=6 animals subjected to sTBI, with drug administration after 30 minutes and sacrifice at 2 days post-TBI (Acute phase 1)
2) n=6 animals subjected to sTBI, with drug administration after 30 minutes and sacrifice at 7 days post-TBI (Acute phase 2).
3) n=6 animals subjected to sTBI, with drug administration after 3 days and sacrifice at 7 days post-TBI (Chronic phase).
The drug treatment was a subcutaneous injection of 0.5 ml of LMW-DS (15 mg/kg) and administered according to the aforementioned schematic protocol.
After the wet weight (w.w.) determination, tissue preparation was affected as previously disclosed (Tavazzi et al., Neurosurgery. 2005; 56: 582-589; Vagnozzi et al., Neurosurgery. 2007; 61: 379-388; Tavazzi et al., Neurosurgery. 2007; 61: 390-395; Amorini et al., J Cell Mol Med. 2017; 21: 530-542.). Briefly, whole brain homogenization was performed with 7 ml of ice-cold, nitrogen-saturated, precipitating solution composed by CH3CN+10 mM KH2PO4, pH 7.40, (3:1; v:v), and using an Ultra-Turrax set at 24,000 rpm/min (Janke & Kunkel, Staufen, Germany). After centrifugation at 20,690×g, for 10 min at 4° C., the clear supernatants were saved, pellets were supplemented with 3 ml of the precipitating solution and homogenized again as described above. A second centrifugation was performed (20,690×g, for 10 min at 4° C.), pellets were saved, supernatants combined with those previously obtained, extracted by vigorous agitation with a double volume of HPLC-grade CHCl3 and centrifuged as above. The upper aqueous phases containing water-soluble low-molecular weight compounds were collected, subjected to chloroform washings for two more times (this procedure allowed the removal of all the organic solvent and of any lipid soluble compound from the buffered tissue extracts), adjusted in volumes with 10 mM KH2PO4, pH 7.40, to have ultimately aqueous 10% tissue homogenates and saved at −80° C. until assayed.
The simultaneous determination of primary free amino acids (FAA) and amino group containing compounds (AGCC) (listed below) was performed using the precolumn derivatization of the sample with a mixture of Ortho-phthalaldehyde (OPA) and 3-Mercaptopropionic acid (MPA), as described in detail elsewhere (Amorini et al., J Cell Mol Med. 2017; 21: 530-542; Amorini et al., Mol Cell Biochem. 2012; 359: 205-216). […] The automated precolumn derivatization of the samples (15 μl) with OPA-MPA was carried out at 24° C. and 25 μl of the derivatized mixture were loaded onto the HPLC column (Hypersil C-18, 250×4.6 mm, 5 μm particle size, thermostated at 21° C.) for the subsequent chromatographic separation. In the case of glutamate, deproteinized brain extracts were diluted 20 times with HPLC-grade H2O prior to the derivatization procedure and subsequent injection. Separation of OPA-AA and OPA-AGCC was carried out at a flow rate of 1.2 ml/min using two mobile phases (mobile phase A=24 mmol/l CH3COONa+24 mmol/l Na2HPO4+1% tetrahydrofurane+0.1% trifluoroacetic acid, pH 6.5; mobile phase B=40% CH3OH+30% CH3CN+30% H2O), using an appropriate step gradient (Amorini et al., J Cell Mol Med. 2017; 21: 530-542; Amorini et al., Mol Cell Biochem. 2012; 359: 205-216).
Assignment and calculation of the OPA-AA and OPA-AGCC in chromatographic runs of whole brain extracts were carried out at 338 nm wavelengths by comparing retention times and areas of peaks with those of peaks of chromatographic runs of freshly-prepared ultra-pure standard mixtures with known concentrations. […]

[1] = Acute phase 1: 15 mg/kg s.c. 30 min post-sTBI, sacrifice day 2
[2] = Acute phase 2: 15 mg/kg s.c. 30 min post-sTBI, sacrifice day 7
[3] = Chronic phase: 15 mg/kg s.c. 3 days post-sTBI, sacrifice day 7

sodium salt of dextran sulfate [LMW-DS]
effect on sTBI-induced increase in glutamate (GLU) (15 mg/kg s.c. early post-injury (30 min following sTBI)): remarkable inhibition
effect on glutamate excitotoxicity marker (15 mg/kg s.c. injected at 3 days after sTBI): no efficacy
ALA cerebral concentration [1]: 0.50 ± 0.12^a μmol/g (w.w.)
ARG cerebral concentration [1]: 0.13 ± 0.02^b, d μmol/g (w.w.)
ASN cerebral concentration [1]: 0.12 ± 0.02^i μmol/g (w.w.)
ASP cerebral concentration [1]: 2.40 ± 0.56^d, i μmol/g (w.w.)
CITR cerebral concentration [1]: 0.018 ± 0.004 µmol/g (w.w.)
GABA cerebral concentration [1]: 1.43 ± 0.25^a μmol/g (w.w.)
GLN cerebral concentration [1]: 4.78 ± 1.09^a μmol/g (w.w.)
GLU cerebral concentration [1]: 9.81 ± 1.66^i μmol/g (w.w.)
GLY cerebral concentration [1]: 0.83 ± 0.25^a, c μmol/g (w.w.)
HIS cerebral concentration [1]: 0.068 ± 0.015^b μmol/g (w.w.)
ILE cerebral concentration [1]: 0.038 ± 0.007 µmol/g (w.w.)
L-Cystat cerebral concentration [1]: 0,185 ± 0.031^b, c, i μmol/g (w.w.)
LEU cerebral concentration [1]: 0.021 ± 0.005^a, c μmol/g (w.w.)
LYS cerebral concentration [1]: 0.236 ± 0.057^b, d, h μmol/g (w.w.)
MET cerebral concentration [1]: 0.016 ± 0.005^d, j μmol/g (w.w.)
ORN cerebral concentration [1]: 0.014 ± 0.007 µmol/g (w.w.)
PHE cerebral concentration [1]: 0.031 ± 0.011^b, d μmol/g (w.w.)
SAH cerebral concentration [1]: 0.033 ± 0.008^b, c, j μmol/g (w.w.)
SER cerebral concentration [1]: 0.88 ± 0.25^a μmol/g (w.w.)
TAU cerebral concentration [1]: 4.86 ± 0.85^b μmol/g (w.w.)
THR cerebral concentration [1]: 0.92 ± 0.29^a μmol/g (w.w.)
TRP cerebral concentration [1]: 0.030 ± 0.007^b, dg, i μmol/g (w.w.)
TYR cerebral concentration [1]: 0.15 ± 0.03 µmol/g (w.w.)
VAL cerebral concentration [1]: 0.042 ± 0.011 µmol/g (w.w.)
ALA cerebral concentration [2]: 0.52 ± 0.24^a, e μmol/g (w.w.)
ARG cerebral concentration [2]: 0.16 ± 0.03 µmol/g (w.w.)
ASN cerebral concentration [2]: 0.13 ± 0.03^i μmol/g (w.w.)
ASP cerebral concentration [2]: 2.94 ± 0.98^f, j μmol/g (w.w.)
CITR cerebral concentration [2]: 0.018 ± 0.008 µmol/g (w.w.)
GABA cerebral concentration [2]: 1.60 ± 0.24^a μmol/g (w.w.)
GLN cerebral concentration [2]: 3.66 ± 0.41 µmol/g (w.w.)
GLU cerebral concentration [2]: 9.93 ± 1.56^e, i μmol/g (w.w.)
GLY cerebral concentration [2]: 0.71 ± 0.16^f, i μmol/g (w.w.)
HIS cerebral concentration [2]: 0.055 ± 0.019 µmol/g (w.w.)
ILE cerebral concentration [2]: 0.048 ± 0.017^a μmol/g (w.w.)
L-Cystat cerebral concentration [2]: 0.173 ± 0.038^b, f, i μmol/g (w.w.)
LEU cerebral concentration [2]: 0.018 ± 0.004 µmol/g (w.w.)
LYS cerebral concentration [2]: 0.32 ± 0.04^a, e, i μmol/g (w.w.)
MET cerebral concentration [2]: 0.022 ± 0.006^b, e, i μmol/g (w.w.)
ORN cerebral concentration [2]: 0.011 ± 0.005 µmol/g (w.w.)
PHE cerebral concentration [2]: 0.028 ± 0.010 µmol/g (w.w.)
SAH cerebral concentration [2]: 0.026 ± 0.010^f, i μmol/g (w.w.)
SER cerebral concentration [2]: 0.71 ± 0.28^b μmol/g (w.w.)
TAU cerebral concentration [2]: 3.80 ± 1.19 µmol/g (w.w.)
THR cerebral concentration [2]: 0.66 ± 0.23 µmol/g (w.w.)
TRP cerebral concentration [2]: 0.015 ± 0.006 µmol/g (w.w.)
TYR cerebral concentration [2]: 0.172 ± 0.046^b, f μmol/g (w.w.)
VAL cerebral concentration [2]: 0.057 ± 0.017 µmol/g (w.w.)
ALA cerebral concentration [3]: 0.57 ± 0.28^a, e μmol/g (w.w.)
ARG cerebral concentration [3]: 0.14 ± 0.02 µmol/g (w.w.)
ASN cerebral concentration [3]: 0.18 ± 0.02^a μmol/g (w.w.)
ASP cerebral concentration [3]: 4.46 ± 0.70^a, f μmol/g (w.w.)
CITR cerebral concentration [3]: 0.020 ± 0.006 µmol/g (w.w.)
GABA cerebral concentration [3]: 1.85 ± 0.65^a μmol/g (w.w.)
GLN cerebral concentration [3]: 3.98 ± 0.34 µmol/g (w.w.)
GLU cerebral concentration [3]: 13.58 ± 1.28^a μmol/g (w.w.)
GLY cerebral concentration [3]: 1.05 ± 0.13^a, f μmol/g (w.w.)
HIS cerebral concentration [3]: 0.047 ± 0.021 µmol/g (w.w.)
ILE cerebral concentration [3]: 0.041 ± 0.016^b μmol/g (w.w.)
L-Cystat cerebral concentration [3]: 0.26 ± 0.05^a, f μmol/g (w.w.)
LEU cerebral concentration [3]: 0.024 ± 0.032^b, f μmol/g (w.w.)
LYS cerebral concentration [3]: 0.179 ± 0.036 µmol/g (w.w.)
MET cerebral concentration [3]: 0.009 ± 0.004^b μmol/g (w.w.)
ORN cerebral concentration [3]: 0.017 ± 0.009^a, e μmol/g (w.w.)
PHE cerebral concentration [3]: 0.033 ± 0.011^b μmol/g (w.w.)
SAH cerebral concentration [3]: 0.050 ± 0.013^a μmol/g (w.w.)
SER cerebral concentration [3]: 0.93 ± 0.27^a, e μmol/g (w.w.)
TAU cerebral concentration [3]: 4.49 ± 0.43^a μmol/g (w.w.)
THR cerebral concentration [3]: 0.75 ± 0.24^a, e μmol/g (w.w.)
TRP cerebral concentration [3]: 0.012 ± 0.007 µmol/g (w.w.)
TYR cerebral concentration [3]: 0.21 ± 0.05^f μmol/g (w.w.)
VAL cerebral concentration [3]: 0.040 ± 0.016^b μmol/g (w.w.)
